This note sets out measurements from patent US20160331743A1 (UROGEN PHARMA LTD, priority 2014, published 2016).

“Also recorded” adds a separate entry of the source. Like-named read-outs stand apart in the source and are kept apart here.

This experiment deals with carcinoma in situ (CIS) bladder cancer. The note with it: imiquimod 0.4%, once weekly for 6 weeks.

Excerpt: Patients who have been diagnosed with CIS bladder cancer are potential candidates for the study. The CIS lesion(s) may be primary, secondary, or recurrent, and may be concomitant to a Ta or T1 lesion, provided the Ta or T1 lesion has been fully resected.
After provision of written informed consent, patients are to be evaluated for study eligibility during the screening period within 28 days (4 weeks) before Day 0 (i.e., the first day of study drug administration). Screening evaluations to be performed include medical history, physical examination, vital signs, Eastern Cooperative Oncology Group (ECOG) performance status, hematology and clinical chemistry, and urinalysis with culture. Screening evaluations also include a cystoscopic examination of the bladder with mapping and biopsy/ies of all suspicious areas between Days −28 and −14, followed by a bladder washing for cytology. Patients who have undergone such examinations as part of the diagnostic process outside of the study are not required to undergo the procedures again, provided the examinations occurred within the specified timeframe and positive slides are available for a central pathology and cytology review.
In cases with no visible lesions, at least one biopsy will be taken at the prior positive site and at least 1 additional random biopsy will be taken. Response to treatment will be determined based on urine cytology and tissue sample histology findings.
Patients meeting all of the following criteria were considered eligible for study entry: • 1. Males or female patient is aged ≧18 years. • 2. Patient has pathologically-proven, recurrent, primary, secondary, or concomitant carcinoma in situ disease, defined by having either CIS alone or Ta or T1 with CIS, provided the Ta or T1 lesion(s) has/have been fully resected. In cases with T1 tumor lesions, muscularis propria tissue should be in the resected specimen to confirm that it is tumor-free. • 3. Patient has undergone mapping of the bladder between Days −28 and −14, with at least one biopsy providing pathological confirmation of CIS of the bladder. • 4. Patient has undergone bladder washing for cytology between Days −28 and −1. In patients in whom Ta or T1 lesion(s) were resected, the bladder washing must have occurred after the resection. • 5. Patient has an ECOG performance status 0-2. • 6. Patient has adequate bone marrow, hepatic, and renal function within 4 weeks before Day 0.

For the compound `CC(C)Cn1cnc2c(N)nc3ccccc3c21` [imiquimod, 1-Isobutyl-1H-imidazo[4,5-c]quinolin-4-amine], the “Summary (response to treatment)” value by setting is: (Patient 1 (BCG refractory, CIS), 50 mL intravesical) “Responder”; (Patient 2 (prior chemo, BCG; CIS), 50 mL intravesical, evaluation still ongoing) “partial responder”; (Patient 3 (no prior treatment, CIS + papillary cancer), 50 mL intravesical) “Responder”; (Patient 5 (prior BCG/Mitomycin, CIS), 50 mL intravesical) “Responder”. The Histology post treatment result by setting is: (Patient 1 (prior BCG, CIS prior to treatment), 200 mg in 50 mL intravesical, assessed 5 to 7 weeks after last dose) “no tumor was detecable”; (Patient 2 (prior chemotherapy, BCG, 9x TURBT, CIS prior to treatment), 50 mL intravesical) “still CIS detected and CIS”; (Patient 3 (no prior treatment, CIS + papillary high and low grade cancer prior to treatment), 50 mL intravesical) “no tumor was detected any more; also recorded: No tumor”; (Patient 4 (prior TURB, low grade prior to treatment; had no CIS bladder cancer, excluded from study), 50 mL intravesical) “No tumor”; (Patient 5 (prior BCG/Mitomycin, CIS prior to treatment), 50 mL intravesical) “no tumor was detectable”. Also, the “Tumour detectable in follow-up evaluation” value (Patient 1, preliminary results, 50 mL intravesical) was “no tumour was detectable”. Moreover, the Cytology post treatment result (Patient 3 (no prior treatment), 50 mL intravesical) was “no tumor was detected any more”. Also, the “Number of patients with complete remission of the CIS bladder cancer as assessed by histology” value (of the 5 patients analyzed (patients 1, 3, 4, 5 counted), 50 mL intravesical) is reported as “Four”.
